Article PMC11530130, “Peripherally restricted PICK1 inhibitor mPD5 ameliorates pain behaviors in murine inflammatory and neuropathic pain models” (JCI Insight, 2024)
“And” between values parts separate entries of the source, which are not always exact repeats. Equal values may be shown once.

How the values were obtained:
[1] = Solubility in PBS by visual inspection
Experimental: (§1) SUPPORTING INFORMATION: Method Section.
(§2) Sex as a biological variable.
(§3) All peptides were ordered from WuXI AppTec (Shanghai, China) or TAG-Copenhagen […]
Assessment of solubility and stability of mPD5.
Solubility was determined by visual inspection of samples dissolved in increasing concentration in 10 mM PBS as judged by full transparency and monophasic appearance.
Stability was addressed by […] for four concentrations (2, 20, 50, and 200 µM), by leaving mPD5 in PBS at 5 °C and 25 °C for 30 days followed by HPLC-UV-MS.
(§4) Protein expression and purification.
(§5) Full length rat PICK1 (pET41) was, as described earlier (1), expressed in BL21-DE3-pLysS and grown at 37 °C, induced at OD600= 0.6 with 1 mM IPTG, and grown for 16 hours at 20 °C.
Cultures were harvested and re-suspended in 50 mM Tris, 125 mM NaCl, 2 mM DTT (Sigma), 1% Triton X-100 (Sigma), 20 µg/mL DNAse 1 and half a tablet of cOmplete protease inhibitor cocktail (Roche) pr. 1 L culture. The resuspended pellets were frozen at -80 °C for later purification. […] PICK1 was eluted on ice and concentration was measured on a NanoDrop 3000.
Fluorescence polarization binding. […]
(§6) binding surface 96 well plates (Sigma-Aldrich, Ref. no. 3686). The plates were incubated 20 min on ice and the fluorescence polarization was measured on an Omega POLARstar plate reader (BMG LABTECH) using excitation filter of 485 nm and long pass emission filter of 520 nm. […]

[2] = tested on: mice, CFA model of inflammatory pain; experiment: CFA model of inflammatory pain, von Frey, i.t. administration; assay type: in vivo, mouse; conditions: CFA day 2, i.t. 20 μM, 7 μL
Experimental: Unless otherwise specified, wild type C57BL/6NRj mice (male and female, aged eight-weeks at the beginning of experiment) were used (Janvier, France). Animals were allowed at least seven days of habituation to the animal facility before initiation of experiment. Mice were group-housed in a temperature-controlled room, maintained on a 12/12hour light/dark cycle (lights on at 6 A.M) with free access to standard rodent chow (Altromin 1342 (Brogaarden, […]
Drug administration and dosing for animal experiments.
All compounds were diluted in PBS or saline (depending on control) and administered through different routes i.t. (7 μL/mouse)), i.p. (10 μL/g) or s.c. (10 μL/g)) as indicated. Doses of mPD5 were based on previous studies with TPD5 (6) with a subcutaneous dose-range included in the CFA studies further guiding dose selection for SNI, STZ and CIBP studies. Pregabalin dose was chosen based on previous experience from Phenotype Expertise (Marseilles, France). In the CIBP model, a dose of […] morphine was chosen to avoid hyperactivity, though known to provide only partial pain relief in this model. In remaining experiments, 5 mg/kg morphine was chosen, known to provide full pain relief, except for the conditioned place preference experiment, where 10 mg/kg was used instead in accordance with literature. […]

PICK1 = PICK1 (Rattus norvegicus, UniProt Q9EP80); experiment: Fluorescence polarization competition binding; set-up: Full length rat PICK1 (pET41) was, as described earlier (1), expressed in BL21-DE3-pLysS; made in house; host or cells: E. coli BL21-DE3-pLysS
PICK1, sequence (Q9EP80 whole entry): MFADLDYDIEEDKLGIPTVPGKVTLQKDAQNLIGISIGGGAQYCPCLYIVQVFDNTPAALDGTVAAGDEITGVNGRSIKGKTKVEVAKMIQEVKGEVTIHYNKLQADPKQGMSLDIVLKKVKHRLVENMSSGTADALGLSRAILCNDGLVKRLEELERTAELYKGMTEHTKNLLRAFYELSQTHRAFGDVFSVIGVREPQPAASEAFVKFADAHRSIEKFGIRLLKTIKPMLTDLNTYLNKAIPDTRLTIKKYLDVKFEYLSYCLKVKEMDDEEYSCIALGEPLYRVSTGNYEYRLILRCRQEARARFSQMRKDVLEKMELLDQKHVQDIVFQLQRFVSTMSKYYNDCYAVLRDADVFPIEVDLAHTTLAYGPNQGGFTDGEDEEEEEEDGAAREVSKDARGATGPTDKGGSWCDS
Experimental: as §1, §2, §3, §4, §5
Cultures were harvested and re-suspended in 50 mM Tris, 125 mM NaCl, 2 mM DTT (Sigma), 1% Triton X-100 (Sigma), 20 µg/mL DNAse 1 and half a tablet of cOmplete protease inhibitor cocktail (Roche) pr. 1 L culture. The resuspended pellets were frozen at -80 °C for later purification. The lysate was cleared by centrifugation (36,000 x g for 30 min at 4 °C), and the supernatant was incubated with Glutathione-Sepharose 4B beads (GE Healthcare) for two hours at 4 °C under gentle rotation and then centrifuged at 4000 x g for 5 min. The supernatant was removed, and the beads were washed twice in 35 mL 50 mM Tris, 125 mM NaCl, 2 mM DTT, and 0.01% Triton-X100. The beads were transferred to PD-10 Bio-Spin® Chromatography columns (Bio-Rad) and washed with an additional 3 column volumes. Each column was sealed and 0.075 U/µL, Novagen® was added for cleavage O/N at 4 °C under gentle rotation. PICK1 was eluted on ice and concentration was measured on a NanoDrop 3000.
Fluorescence polarization binding.
The competition binding assay was carried out using a fixed concentration of PICK1 (0.5 µM) […]
as §6, with “nm. The data was plotted and fitted to a competitive binding One Site fit using GraphPad” for “nm.”
Superdex200 Increase 10/300.

CCCCCCCCCCCCCC(=O)N(CCOCCOCCC(=O)N[C@@H](Cc1c[nH]cn1)C(=O)N[C@@H](Cc1c[nH]c2ccccc12)C(=O)N[C@@H](CC(C)C)C(=O)N[C@@H](CCCCN)C(=O)N[C@H](C(=O)O)C(C)C)CCOCCOCCC(=O)N[C@@H](Cc1c[nH]cn1)C(=O)N[C@@H](Cc1c[nH]c2ccccc12)C(=O)N[C@@H](CC(C)C)C(=O)N[C@@H](CCCCN)C(=O)N[C@H](C(=O)O)C(C)C [mPD5, myristoyl-NPEG4-(HWLKV)2]
solubility [1]: ≥ 250000 µg/mL and ~130000 µM
effect on mechanical hypersensitivity (PWT) ([2]; 1 hour and 5 hours after administration): significant relief of mechanical hypersensitivity
effect on mechanical hypersensitivity (PWT) ([2]; 24 hours after administration): no effect
Ki (PICK1): 3 nM
affinity gain compared with D5 (HWLKV) alone (PICK1; from Ki,app): approximately 1000 fold
affinity gain compared with PD5 (PICK1; from Ki,app): 30 fold
